IC50 data for 26 compounds are collected here from patent US20070155730A1, “Benzodiazepine And Benzopiperazine Analog Inhibitors Of Histone Deacetylase” (METHYLGENE, INC., priority 2005, published 2007).

This assay deals with histone deacetylase (HDAC). The assay is described as follows: Inhibition of Histone Deacetylase Enzymatic Activity. The settings on record: substrate Boc-Lys(Ac)-AMC, Fluor-de-Lys developer, 37° C., 20 min; against one or more of HDAC-1 to HDAC-11, SirT1 to SirT7 (isoform not given); read-out: HDAC Inhibitory Activity (IC50). It counts as biochemical. The method, then: The following protocol is used to assay the compounds of the invention. In the assay, the buffer used is 25 mM HEPES, pH 8.0, 137 mM NaCl, 2.7 mM KCl, 1 mM MgCl2 and the substrate is Boc-Lys(Ac)-AMC in a 50 mM stock solution in DMSO. The enzyme stock solution is 4.08 μg/mL in buffer.
The compounds are pre-incubated (2 μl in DMSO diluted to 13 μl in buffer for transfer to assay plate) with enzyme (20 μl of 4.08 μg/mL) for 10 min at room temperature (35 μl pre-incubation volume). The mixture is pre-incubated for 5 min at room temperature. The reaction is started by bringing the temperature to 37° C. and adding 16 μl substrate. Total reaction volume is 50 μl. […] A plate is incubated in the dark for 10 min at room temperature before reading (λEX=360 nm, λEm=470 nm, Cutoff filter at 435 nm).
In the table, “A” indicates inhibitory activity at a concentration of <0.05 μM; “B” indicates inhibitory activity at a concentration >0.05 μM but <0.5 μM, “C” indicates inhibitory activity at >0.5 μM but <2 μM and “D” indicates inhibitory activity at a concentration of >2 μM but <10 μM.
By IC50 is commonly meant the concentration at which inhibition is half-maximal. Take `O=C(NO)c1ccc2c(c1)NC(=O)[C@H](Cc1c[nH]c3ccccc13)NC2=O` [Compound 97c, (S)-3-((1H-Indol-3-yl)methyl)-N-hydroxy-2,5-dioxo-2,3,4,5-tetrahydro-1H-benzo[e][1,4]diazepine-8-carboxamide]: the IC50 lay in the range of 500 to 2000 nM.
As to `O=C(CCCCCCC(=O)Nc1ccc2c(c1)NC(=O)[C@@H](Cc1c[nH]c3ccccc13)N2)NO` [Compound 24f, N1—((R)-2-((1H-Indol-3-yl)methyl)-1,2,3,4-tetrahydro-3-oxoquinoxalin-6-yl)-N8-hydroxyoctanediamide], the IC50 is less than 50 nM.
For `CCC(C)[C@@H]1Nc2ccc(C(=O)NO)cc2NC1=O` (stereo partly drawn) [Compound 4d, (S)-2-sec-butyl-1,2,3,4-tetrahydro-N-hydroxy-3-oxoquinoxaline-6-carboxamide] the value was 2000 to 10000 nM; for `CC(C)[C@H]1C(=O)Nc2cc(C(=O)NO)ccc2N1Cc1ccc2ccccc2c1` [Compound 16h, (S)-1,2,3,4-tetrahydro-N-hydroxy-2-isopropyl-1-((naphthalen-3-yl)methyl)-3-oxoquinoxaline-6-carboxamide], 500 to 2000 nM.
For `O=C(CCCCCC1NC(=O)c2cc(NC(=O)OCc3ccccc3)ccc2NC1=O)NO` (centres unmarked) [Compound 92a, 6-(7-Benzyloxycarbonylamino-2,3,4,5-tetrahydro-2,5-dioxo-1H-benzo[e][1,4]diazepin-3-yl)-N-hydroxyhexanamide] the value was 50 to 500 nM.
For `O=C(NO)c1ccc(CN2c3ccccc3NC(=O)[C@H]2Cc2ccoc2)cc1` [Compound 54b20, (R)-4-((2-(furan-3-ylmethyl)-3-oxo-3,4-dihydroquinoxalin-1(2H)-yl)methyl)-N-hydroxybenzamide] the value was less than 50 nM.
With `O=C(NO)c1ccc(CN2c3ccccc3NC(=O)[C@H]2Cc2ccc(F)cc2)cc1` [Compound 54b15, (R)-4-((2-(4-fluorobenzyl)-3-oxo-3,4-dihydroquinoxalin-1(2H)-yl)methyl)-N-hydroxybenzamide], the IC50 is less than 50 nM.
For `O=C(NO)c1ccc2c(c1)NC(=O)[C@@H](Cc1c[nH]c3ccccc13)N2` [Compound 4f, (R)-2-((1H-indol-3-yl)methyl)-1,2,3,4-tetrahydro-N-hydroxy-3-oxoquinoxaline-6-carboxamide] the value was 2000 to 10000 nM; for `O=C(NO)c1ccc(CN2c3ccccc3NC(=O)[C@H]2CCc2ccccc2)cc1` [Compound 54b7, (R)—N-hydroxy-4-((3-oxo-2-phenethyl-3,4-dihydroquinoxalin-1(2H)-yl)methyl)benzamide], less than 50 nM.
For `CC(C)[C@@H]1Nc2ccc(NC(=O)CCCCCCC(=O)c3ncco3)cc2NC1=O` [Compound 29a, N—((S)-1,2,3,4-Tetrahydro-2-isopropyl-3-oxoquinoxalin-6-yl)-8-(oxazol-2-yl)-8-oxooctanamide] the value was 50 to 500 nM.
For `O=C(NO)c1ccc(CN2c3ccccc3NC(=O)[C@H]2Cc2ccc3ccccc3c2)cc1` [Compound 54b10, (R)—N-hydroxy-4-((2-(naphthalen-2-ylmethyl)-3-oxo-3,4-dihydroquinoxalin-1(2H)-yl)methyl)benzamide] the value was less than 50 nM; for `CC(C)C[C@@H]1Nc2ccc(C(=O)NO)cc2NC1=O` [Compound 4k, (S)-1,2,3,4-Tetrahydro-N-hydroxy-2-isobutyl-3-oxoquinoxaline-6-carboxamide], 2000 to 10000 nM.
For the compound `CC(C)C[C@H]1NC(=O)c2ccc(C(=O)NO)cc2NC1=O` [Compound 97f, (R)-N-Hydroxy-3-isobutyl-2,5-dioxo-2,3,4,5-tetrahydro-1H-benzo[e][1,4]diazepine-8-carboxamide], the IC50 was in the range of 2000 to 10000 nM.
For `O=C(NO)c1ccc(CN2c3ccccc3NC(=O)[C@H]2Cc2cccs2)cc1` [Compound 54a2, 4-(((R)-2,3-Dihydro-2-oxo-3-((thiophen-2-yl)methyl)quinoxalin-4(1H)-yl)methyl)-N-hydroxybenzamide] the value was less than 50 nM; for `O=C1CN(Cc2ccc(C(=O)NO)cc2)c2ccccc2N1` [Compound 54b1, N-hydroxy-4-((3-oxo-3,4-dihydroquinoxalin-1(2H)-yl)methyl)-benzamide], less than 50 nM; for `O=C(NO)c1ccc(CN2c3ccccc3NC(=O)[C@@H]2Cc2csc3ccccc23)cc1` [Compound 54b14, (S)-4-((2-(benzo[b]thiophen-3-ylmethyl)-3-oxo-3,4-dihydroquinoxalin-1(2H)-yl)methyl)-N-hydroxybenzamide], 50 to 500 nM.
For `CC(C)[C@H]1C(=O)Nc2cc(C(=O)NO)ccc2N1S(=O)(=O)c1ccc(-c2ccccc2)cc1` [Compound 18b, (S)—N-hydroxy-1-(biphenyl-4-sulfonyl)-2-isopropyl-3-oxo-1,2,3,4-tetrahydroquinoxaline-6-carboxamide] the value was 500 to 2000 nM; for `O=C(NO)c1ccc(CN2c3ccccc3NC(=O)[C@@H]2Cc2ccccc2)cc1` [Compound 54b4, (S)-4-((2-benzyl-3-oxo-3,4-dihydroquinoxalin-1(2H)-yl)methyl)-N-hydroxybenzamide], less than 50 nM; for `CC(C)[C@@H]1Nc2ccc(C(=O)NO)cc2NC1=O` [Compound 4a, (S)-1,2,3,4-Tetrahydro-N-hydroxy-2-isopropyl-3-oxoquinoxaline-6-carboxamide], 2000 to 10000 nM.
On to `COc1ccc(CN2c3ccc(C(=O)NO)cc3NC(=O)[C@@H]2C(C)C)cc1` [Compound 8, (S)-1-(4-Methoxybenzyl)-1,2,3,4-tetrahydro-N-hydroxy-2-isopropyl-3oxoquinoxaline-6-carboxamide], for which the IC50 lay in the range of 500 to 2000 nM.
For `CC(C)[C@H]1C(=O)Nc2cc(C(=O)NO)ccc2N1Cc1ccc(F)cc1` [Compound 16a, (S)-1-(4-fluorobenzyl)-N-hydroxy-2-isopropyl-3-oxo-1,2,3,4-tetrahydroquinoxaline-6-carboxamide] the value was 2000 to 10000 nM; for `O=C(NO)c1ccc(CN2C(=O)CNC(=O)[C@H]2Cc2cccs2)cc1` [Compound 136c, (R)-4-((3,6-Dioxo-2-(thien-2-ylmethyl)piperazin-1-yl)methyl)-N-hydroxybenzamide], 50 to 500 nM.
As for `CC(C)[C@@H]1Nc2ccc(NC(=O)CCCCCCC(=O)Nc3ccccc3N)cc2NC1=O` [Compound 23a, N1-(2-Aminophenyl)-N8—((S)-1,2,3,4-tetrahydro-2-isopropyl-3-oxoquinoxalin-6-yl)octanediamide], the 50% inhibitory concentration (IC50) was in the range of 2000 to 10000 nM.
For `CC(C)[C@@H]1Nc2ccc(C(=O)NCCCCCC(=O)NO)cc2NC1=O` [Compound 13, (S)—N-(5-(Hydroxycarbamoyl)pentyl)-1,2,3,4-tetrahydro-2-isopropyl-3-oxoquinoxaline-6-carboxamide] the value was 50 to 500 nM; for `CC(C)C[C@H]1NC(=O)c2ccccc2N(CCCCCC(=O)Nc2ccccc2N)C1=O` [Compound 71, N-(2-Aminophenyl)-6-((R)-2,3,4,5-tetrahydro-3-isobutyl-2,5-dioxobenzo[e][1,4]diazepin-1-yl)hexanamide], 2000 to 10000 nM; for `O=C(NO)c1ccc2c(c1)NC(=O)[C@H](Cc1c[nH]c3ccccc13)N2` [Compound 4c, (S)-2-((1H-indol-3-yl)methyl)-1,2,3,4-tetrahydro-N-hydroxy-3-oxoquinoxaline-6-carboxamide], 500 to 2000 nM.
